SMILES strings stand for the structures. Structures can show the parent of a compound that is named as a salt.

T1 sequence (P26663 2420-2963): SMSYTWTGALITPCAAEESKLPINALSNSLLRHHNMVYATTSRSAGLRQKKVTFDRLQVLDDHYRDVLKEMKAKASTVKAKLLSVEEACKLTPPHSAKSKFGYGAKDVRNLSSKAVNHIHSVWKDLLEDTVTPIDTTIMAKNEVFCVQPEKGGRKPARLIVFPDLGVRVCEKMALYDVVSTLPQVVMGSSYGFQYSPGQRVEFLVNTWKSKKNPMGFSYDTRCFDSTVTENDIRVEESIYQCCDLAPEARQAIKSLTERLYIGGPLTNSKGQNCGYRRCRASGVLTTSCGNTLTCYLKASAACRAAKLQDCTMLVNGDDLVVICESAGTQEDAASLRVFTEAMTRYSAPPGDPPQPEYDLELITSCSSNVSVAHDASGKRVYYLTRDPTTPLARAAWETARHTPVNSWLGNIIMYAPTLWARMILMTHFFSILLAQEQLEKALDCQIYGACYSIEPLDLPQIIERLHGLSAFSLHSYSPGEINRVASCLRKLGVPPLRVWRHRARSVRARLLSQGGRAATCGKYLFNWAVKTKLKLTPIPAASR

One assay has as its target T1, HCV polymerase (Hepatitis C virus genotype 1b, UniProt P26663).
T1 construct: a region encoding NS5B (J Virol 1991 March, 65(3), 1105-13, 544 amino acids after deletion of 47 amino acids on the C-terminal); 6xHis (C); made in house; host or cells: Escherichia coli
Kind of assay: biochemical. Set-up: species or system HCV BK strain.
Conditions: not given
The procedure, abridged: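 His-tagged NS5B (BK strain, 47-aa C-terminal deletion, E. coli-expressed) at 0.5 μg/ml copied 5 μg/ml run-off RNA bearing the HCV 3′ UTR with 2 μM UTP plus [3H]UTP, 50 μM ATP/GTP, in pH 7.5 Tris with 5 mM MgCl2, 25 °C, 90 min. TCA-precipitated RNA was counted and IC50 calculated.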
Take `O=C(O)c1ccc2c(C3CCCCC3)c3n(c2c1)CCOc1c(-c2ccccc2CCC(=O)N2CCCCC2)cccc1-3` [Example 2-535, 12-cyclohexyl-4-{2-[3-oxo-3-(piperidin-1-yl)propyl]phenyl}-6,7-dihydro-5-oxa-7a-azadibenzo[a,e]azulene-9-carboxylic acid]: the IC50 is below 100 nM.
Still for that read-out and setting: then `O=C(O)c1ccc2c(C3CCCCC3)c3n(c2c1)CCOc1c(-c2ccccc2CCCN2CCCCC2)cccc1-3` [Example 2-536, 12-cyclohexyl-4-{2-[3-(piperidin-1-yl)propyl]phenyl}-6,7-dihydro-5-oxa-7a-azadibenzo[a,e]azulene-9-carboxylic acid monohydrochloride], with below 100 nM; and `COC[C@](C)(NC(=O)c1ccc2c(C3CCCCC3)c3n(c2c1)CCOc1cc(OC)ccc1-3)C(=O)Nc1ccc(/C=C/C(=O)O)cc1` [Example 2-537, (E)-3-{4-((S)-2-[(12-cyclohexyl-3-methoxy-6,7-dihydro-5-oxa-7a-azadibenzo[a,e]azulene-9-carbonyl)amino]-3-methoxy-2-methylpropionylamino}phenyl)acrylic acid], with below 100 nM.
On the same count and under the same terms, then `COc1ccc2c(c1)OCCn1c-2c(C2CCCCC2)c2ccc(C(=O)N[C@@H](Cc3ccc(OCc4ccccc4)cc3)C3OCCO3)cc21` [Example 2-538, N—[(S)-2-(4-benzyloxyphenyl)-1-(1,3-dioxolan-2-yl)ethyl]-12-cyclohexyl-3-methoxy-6,7-dihydro-5-oxa-7a-azadibenzo[a,e]azulene-9-carboxamide], with below 100 nM.
Same read-out and setting: then `CC[N+](CC)(CC)Cc1ccc(CC(NC(=O)c2ccc3c(C4CCCCC4)c4n(c3c2)CCOc2cc(OC)ccc2-4)C(=O)OC)cc1` (centres unmarked) [Example 2-539, N-(4-{2-[(12-cyclohexyl-3-methoxy-6,7-dihydro-5-oxa-7a-azadibenzo[a,e]azulene-9-carbonyl)amino]-2-(methoxycarbonyl)ethyl}benzyl)-N,N,N-triethylammonium chloride], with below 100 nM; and `COc1ccc2c(c1)OCCn1c-2c(C2CCCCC2)c2ccc(C(=O)NC3(C(=O)Nc4ccc5oc(=O)ccc5c4)CCC3)cc21` [Example 2-541, N-[1-(2-oxo-2H-chromen-6-ylcarbamoyl)cyclobutyl]-12-cyclohexyl-3-methoxy-6,7-dihydro-5-oxa-7a-azadibenzo[a,e]azulene-9-carboxamide], with below 100 nM.
Compound `COc1ccc2c(c1)OCCn1c-2c(C2CCCCC2)c2ccc(C(=O)N[C@@H](Cc3ccc(OCc4ccccc4)cc3)c3noc(C)n3)cc21` [Example 2-542, N—[(S)-2-(4-benzyloxyphenyl)-1-(5-methyl-1,2,4-oxadiazol-3-yl)ethyl]-12-cyclohexyl-3-methoxy-6,7-dihydro-5-oxa-7a-azadibenzo[a,e]azulene-9-carboxamide] returned an IC50 below 100 nM.
Still for that read-out and setting: then `COc1ccc2c(c1)OCCn1c-2c(C2CCCCC2)c2ccc(C(=O)NC3(C(=O)Nc4ccc(/C=C/C(N)=O)cc4)CCC3)cc21` [Example 2-543, N-{1-[4-((E)-2-carbamoylvinyl)phenylcarbamoyl]cyclobutyl}-12-cyclohexyl-3-methoxy-6,7-dihydro-5-oxa-7a-azadibenzo[a,e]azulene-9-carboxamide], with below 100 nM; and `CNC(=O)/C=C/c1ccc(NC(=O)C2(NC(=O)c3ccc4c(C5CCCCC5)c5n(c4c3)CCOc3cc(OC)ccc3-5)CCC2)cc1` [Example 2-544, N-{1-[4-((E)-2-methylcarbamoylvinyl)phenylcarbamoyl]cyclobutyl}-12-cyclohexyl-3-methoxy-6,7-dihydro-5-oxa-7a-azadibenzo[a,e]azulene-9-carboxamide], with below 100 nM.
On to `COc1ccc2c(c1)OCCn1c-2c(C2CCCCC2)c2ccc(C(=O)NC(C)(C)c3ncc(-c4ccc(CO)cc4)[nH]3)cc21` [Example 2-545, N-{1-[5-(4-hydroxymethylphenyl)-1H-imidazol-2-yl]-1-methylethyl}-12-cyclohexyl-3-methoxy-6,7-dihydro-5-oxa-7a-azadibenzo[a,e]azulene-9-carboxamide], for which the IC50 was below 100 nM.
Compound `COc1ccc2c(c1)OCCn1c-2c(C2CCCCC2)c2ccc(C(=O)NC(C)(C)c3ncc(-c4ccc(C(N)=O)cc4)[nH]3)cc21` [Example 2-546, N-{1-[5-(4-carbamoylphenyl)-1H-imidazol-2-yl]-1-methylethyl}-12-cyclohexyl-3-methoxy-6,7-dihydro-5-oxa-7a-azadibenzo[a,e]azulene-9-carboxamide] gave an IC50 below 100 nM.
Same read-out and setting: then `CNC(=O)c1ccc(-c2cnc(C(C)(C)NC(=O)c3ccc4c(C5CCCCC5)c5n(c4c3)CCOc3cc(OC)ccc3-5)[nH]2)cc1` [Example 2-547, N-{1-methyl-1-[5-(4-methylcarbamoylphenyl)-1H-imidazol-2-yl]ethyl}-12-cyclohexyl-3-methoxy-6,7-dihydro-5-oxa-7a-azadibenzo[a,e]azulene-9-carboxamide], with below 100 nM; and `COc1ccc2c(c1)OCCn1c-2c(C2CCCCC2)c2ccc(C(=O)NC(C)(C)c3ncc(-c4ccc(/C=C/C(=O)O)cc4)[nH]3)cc21` [Example 2-548, (E)-3-[4-(2-{1-[(12-cyclohexyl-3-methoxy-6,7-dihydro-5-oxa-7a-azadibenzo[a,e]azulene-9-carbonyl)amino]-1-methylethyl}-3H-imidazol-4-yl)phenyl]acrylic acid], with below 100 nM; and `O=C(CN1CCCCC1)Nc1ccccc1-c1cccc2c1OCCn1c-2c(C2CCCCC2)c2ccc(C(=O)O)cc21` [Example 2-549, 12-cyclohexyl-4-{2-[2-(piperidin-1-yl)acetylamino]phenyl}-6,7-dihydro-5-oxa-7a-azadibenzo[a,e]azulene-9-carboxylic acid], with below 100 nM.
The same measure, in the same setting: then `COc1ccc2c(c1)OCCn1c-2c(C2CCCCC2)c2ccc(C(=O)NC3(C(=O)Nc4cccc(/C=C/C(=O)O)c4)CCC3)cc21` [Example 2-550, (E)-3-[3-({1-[(12-cyclohexyl-3-methoxy-6,7-dihydro-5-oxa-7a-azadibenzo[a,e]azulene-9-carbonyl)amino]cyclobutanecarbonyl}amino)phenyl]acrylic acid], with below 100 nM; and `CCOc1ccc2c(c1)OCCn1c-2c(C2CCCCC2)c2ccc(C(=O)NC3(C(=O)Nc4cccc(/C=C/C(=O)O)c4)CCC3)cc21` [Example 2-551, (E)-3-[3-({1-[(12-cyclohexyl-3-ethoxy-6,7-dihydro-5-oxa-7a-azadibenzo[a,e]azulene-9-carbonyl)amino]cyclobutanecarbonyl}amino)phenyl]acrylic acid], with below 100 nM.
Same read-out and setting: the result for `CCOc1ccc2c(c1)OCCn1c-2c(C2CCCCC2)c2ccc(C(=O)NC3(C(=O)Nc4ccc(/C=C/C(=O)O)cc4OC)CCC3)cc21` [Example 2-552, (E)-3-[4-({1-[(12-cyclohexyl-3-ethoxy-6,7-dihydro-5-oxa-7a-azadibenzo[a,e]azulene-9-carbonyl)amino]cyclobutanecarbonyl}amino)-3-methoxyphenyl]acrylic acid] reads below 100 nM; that for `O=C(O)c1ccc2c(C3CCCCC3)c3n(c2c1)CCOc1c(-c2ccccc2CCN2CCCCC2)cccc1-3` [Example 2-553, 12-cyclohexyl-4-{2-[2-(piperidin-1-yl)ethyl]phenyl}-6,7-dihydro-5-oxa-7a-azadibenzo[a,e]azulene-9-carboxylic acid monohydrochloride], below 100 nM; that for `O=C(O)c1ccc2c(C3CCCCC3)c3n(c2c1)CCOc1c(-c2ccccc2NCCN2CCCCC2)cccc1-3` [Example 2-554, 12-cyclohexyl-4-{2-[2-(piperidin-1-yl)ethylamino]phenyl}-6,7-dihydro-5-oxa-7a-azadibenzo[a,e]azulene-9-carboxylic acid dihydrochloride], below 100 nM.
Compound `CC(C)Oc1ccc2c(c1)OCCn1c-2c(C2CCCCC2)c2ccc(C(=O)O)cc21` [Example 2-555, 12-cyclohexyl-3-isopropoxy-6,7-dihydro-5-oxa-7a-azadibenzo[a,e]azulene-9-carboxylic acid] showed an IC50 below 100 nM.
`CC(C)Oc1ccc2c(c1)OCCn1c-2c(C2CCCCC2)c2ccc(C(=O)NC3(C(=O)Nc4ccc(/C=C/C(=O)O)cc4)CCC3)cc21` [Example 2-556, (E)-3-[4-({1-[(12-cyclohexyl-3-isopropoxy-6,7-dihydro-5-oxa-7a-azadibenzo[a,e]azulene-9-carbonyl)amino]cyclobutanecarbonyl}amino)phenyl]acrylic acid] had an IC50 below 100 nM.
The same measure, in the same setting: then `CN(C)C(=O)C1Cn2c(c(C3CCCCC3)c3ccc(C(=O)O)cc32)-c2ccccc2O1` (centres unmarked) [Example 3-4, 12-cyclohexyl-6-dimethylcarbamoyl-6,7-dihydro-5-oxa-7a-azadibenzo[a,e]azulene-9-carboxylic acid], with below 100 nM; and `O=C(O)c1ccc2c(C3CCCCC3)c3n(c2c1)COc1ccccc1-3` [Example 4-2, 11-cyclohexyl-5-oxa-6a-azabenzo[a]fluorene-8-carboxylic acid], with 100 to 1000 nM.
Same read-out and setting: then `O=C(O)c1ccc2c(C3CCCCC3)c3n(c2c1)CCCc1ccccc1-3` [Example 5-2, 13-cyclohexyl-6,7-dihydro-5H-benzo[3,4]azepino[1,2-a]indole-10-carboxylic acid], with below 100 nM.
Same read-out and setting: the result for `O=C(O)c1ccc2c(C3CCCCC3)c3n(c2c1)Cc1ccccc1-3` [Example 5-3, 11-cyclohexyl-6H-isoindolo[2,1-a]indole-3-carboxylic acid] reads 100 to 1000 nM.

Staying with this assay, now noted: read-out: HCV polymerase inhibitory activity IC50; 25° C., 90 min; [5,6-3H]UTP incorporation into RNA.
As for `COc1ccc2c(c1)OCCn1c-2c(C2CCCCC2)c2ccc(C(=O)NC(C)(C)c3ncc(-c4ccc(C(=O)O)cc4)[nH]3)cc21` [Example 2-540, 4-(2-{1-[(12-cyclohexyl-3-methoxy-6,7-dihydro-5-oxa-7a-azadibenzo[a,e]azulene-9-carbonyl)amino]-1-methylethyl}-3H-imidazol-4-yl)benzoic acid monohydrochloride], the IC50 is below 100 nM.

What is called IC50 is the midpoint of a concentration-inhibition curve.

Source of the values: US20070049593A1 (priority 2004, published 2007).
